The values below come from patent US6355269B1, “Oral compositions of levosimendan” (Orion Corporation, priority 1997, dated 2002).

The subject of one series is troponin. The following applies: racemic mixture; cited from earlier work.
The test system of another series is intestinal bacteria. Conditions: oral administration; by intestinal bacteria; cited from earlier work.
Series [1] is described as follows: Pharmacokinetic study of levosimendan capsules, single oral dose, in healthy volunteers. Conditions: from oral compositions comprising substantially pure crystalline polymorphic form I. The series is classed as in vivo, human. The method, then: Pharmacokinetic parameters of two different polymorphs, (I) and (II), of levosimendan in healthy volunteers after a single oral dose of 2 mg of levosimendan capsule was studied. The formulations of hard gelatin capsules (size 3) A and B were the following:
The small value of Tmax indicates rapid absorption of the drug into plasma.

As to `CC1CC(=O)NN=C1c1ccc(NN=C(C#N)C#N)cc1` (racemic) [compound (I), [[4-(1,4,5,6-tetrahydro-4-methyl-6-oxo-3-pyridazinyl)phenyl]hydrazono]propanedinitrile], in the series with troponin, the “calcium dependent binding to troponin” value is “significant calcium dependent binding to troponin”.
On to `CC1CC(=O)NN=C1c1ccc(NN=C(C#N)C#N)cc1` (single isomer, unassigned; (-)) [levosimendan, (−)-[[4-(1,4,5,6-tetrahydro-4-methyl-6-oxo-3-pyridazinyl)phenyl]hydrazono]propanedinitrile], for which the “metabolization in the lower gastrointestinal tract” value with intestinal bacteria was “susceptible to metabolization in the lower gastrointestinal tract by intestinal bacteria”. The “dissolution and absorption into plasma” value in series [1] was “rapidly dissolved and absorbed into plasma”.
